Assay results reported in PubChem BioAssay AID330 (DTP/NCI, 2004).
Where “and” joins values, the source holds several entries; their conditions need not be identical. Identical values can stand only once. Inconclusive results and toxic doses are left out. The calls were made as follows: active = survival T/C of 150% or more; inactive = T/C below 125% in these data.

Tested on: P388 leukemia ip, CD2F1 mice, survival T/C
Assay: NCI In Vivo Anticancer Drug Screen. Data for tumor model P388 Leukemia (intraperitoneal) in CD2F1 (CDF1) mice
Conditions: endpoint: median survival time, higher = longer survival
In short: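 Mice carrying the transplanted tumor received test compound or vehicle. Survival was recorded in each group, and the value is the treated-group measurement divided by that of the vehicle-treated control group.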

[1] = dose: 50.0 mg/kg/injection, schedule: Q01DX009 (ip), vehicle: saline with Tween-80
[2] = dose: 100.0 mg/kg/injection, schedule: Q01DX009 (ip), vehicle: saline with Tween-80
[3] = dose: 100.0 mg/kg/injection, schedule: Q04DX003 (ip), vehicle: saline with Tween-80
[4] = dose: 200.0 mg/kg/injection, schedule: Q01DX009 (ip), vehicle: saline with Tween-80
[5] = dose: 200.0 mg/kg/injection, schedule: Q04DX003 (ip), vehicle: saline with Tween-80
[6] = dose: 400.0 mg/kg/injection, schedule: Q01DX009 (ip), vehicle: saline with Tween-80
[7] = dose: 400.0 mg/kg/injection, schedule: Q04DX003 (ip), vehicle: saline with Tween-80
[8] = dose: 60.0 mg/kg/injection, schedule: Q01DX005 (ip), vehicle: saline with Tween-80
[9] = dose: 120.0 mg/kg/injection, schedule: Q01DX005 (ip), vehicle: saline with Tween-80
[10] = dose: 240.0 mg/kg/injection, schedule: Q01DX005 (ip), vehicle: saline with Tween-80
[11] = dose: 50.0 mg/kg/injection, schedule: Q01DX005 (ip), vehicle: saline with Tween-80
[12] = dose: 100.0 mg/kg/injection, schedule: Q01DX005 (ip), vehicle: saline with Tween-80
[13] = dose: 200.0 mg/kg/injection, schedule: Q01DX005 (ip), vehicle: saline with Tween-80
[14] = dose: 50.0 mg/kg/injection, schedule: Q01DX009 (ip), vehicle: Klucel (hydroxypropylcellulose) (HPC)
[15] = dose: 100.0 mg/kg/injection, schedule: Q01DX009 (ip), vehicle: Klucel (hydroxypropylcellulose) (HPC)
[16] = dose: 200.0 mg/kg/injection, schedule: Q01DX009 (ip), vehicle: Klucel (hydroxypropylcellulose) (HPC)

Measured: T/C

COC1C(OC(=O)c2ccc(C)[nH]2)C(O)C(Oc2ccc3c(O)c(NC(=O)c4c[nH]c(C(=O)Nc5c(O)c6ccc(OC7OC(C)(C)C(OC)C(OC(=O)c8ccc(C)[nH]8)C7O)c(C)c6oc5=O)c4C)c(=O)oc3c2C)OC1(C)C (stereo unspecified)
inactive: dose: 6.25 mg/kg/injection, schedule: Q01DX009 (ip), vehicle: saline with Tween-80 110 % of control and 97 % of control | dose: 12.5 mg/kg/injection, schedule: Q01DX009 (ip), vehicle: saline with Tween-80 100 % of control and 122 % of control | dose: 25.0 mg/kg/injection, schedule: Q01DX009 (ip), vehicle: saline with Tween-80 96 % of control | [1] 103 % of control | dose: 50.0 mg/kg/injection, schedule: Q01DX009 (ip), vehicle: saline 118 % of control | [2] 90 % of control | dose: 100.0 mg/kg/injection, schedule: Q01DX009 (ip), vehicle: saline 113 % of control | [3] 109 % of control | [4] 109 % of control | dose: 200.0 mg/kg/injection, schedule: Q01DX009 (ip), vehicle: saline 102 % of control | [5] 100 % of control | [6] 100 % of control | dose: 400.0 mg/kg/injection, schedule: Q01DX009 (ip), vehicle: saline 117 % of control | [7] 109 % of control

CCOC(=O)CC(=O)c1cccnc1
inactive: dose: 50.0 mg/kg/injection, schedule: Q04DX003 (ip), vehicle: suspension in saline 113 % of control | dose: 100.0 mg/kg/injection, schedule: Q04DX003 (ip), vehicle: suspension in saline 104 % of control | dose: 200.0 mg/kg/injection, schedule: Q04DX003 (ip), vehicle: suspension in saline 114 % of control | dose: 400.0 mg/kg/injection, schedule: Q04DX003 (ip), vehicle: suspension in saline 113 % of control

O=CC1CCC(c2ccc3ccccc3c2)O1 (stereo unspecified)
inactive: [8] 106 % of control | [9] 114 % of control | [10] 114 % of control

CCc1nc(-c2ccccc2)nc2c1nc(-c1ccccc1)n2Nc1ccccc1
inactive: [11] 90 % of control | [12] 96 % of control | [13] 91 % of control

Cc1cc(C=C2C(=O)c3ccccc3C2=O)cc(C(C)(C)C)c1O
inactive: dose: 100.0 mg/kg/injection, schedule: Q04DX002 (ip), vehicle: saline 100 % of control | dose: 200.0 mg/kg/injection, schedule: Q04DX002 (ip), vehicle: saline 100 % of control | dose: 400.0 mg/kg/injection, schedule: Q04DX002 (ip), vehicle: saline 97 % of control

COC(=O)c1cccc2c1N(C)c1c(cccc1C(=O)OC)CC2
inactive: dose: 50.0 mg/kg/injection, schedule: Q01DX009 (ip), vehicle: distilled water + Tween-80 + alcohol 93 % of control | dose: 100.0 mg/kg/injection, schedule: Q01DX009 (ip), vehicle: distilled water + Tween-80 + alcohol 94 % of control | dose: 200.0 mg/kg/injection, schedule: Q01DX009 (ip), vehicle: distilled water + Tween-80 + alcohol 99 % of control

O=C(N/N=C(/C(=N/NC(=O)c1ccccc1)c1ccccc1)c1ccccc1)c1ccccc1
inactive: [2] 100 % of control | [4] 95 % of control | [6] 90 % of control

CCOC(=O)CCCCCCNC(=O)N1c2c(nc(N)[nH]c2=O)NCC1CNc1ccc(C(=O)NC(CCC(=O)O)C(=O)O)cc1 (stereo unspecified)
inactive: dose: 50.0 mg/kg/injection, schedule: Q01DX001 (ip), vehicle: sodium bicarbonate 106 % of control | dose: 100.0 mg/kg/injection, schedule: Q01DX001 (ip), vehicle: sodium bicarbonate 100 % of control | dose: 200.0 mg/kg/injection, schedule: Q01DX001 (ip), vehicle: sodium bicarbonate 100 % of control

C1CCNCC1.CC(=O)[C-](C(C)=O)c1ccccc1.CC(=O)[C-](C(C)=O)c1ccccc1.CC(=O)[C-](C(C)=O)c1ccccc1.CC(=O)[C-](C(C)=O)c1ccccc1.[Eu+3]
inactive: dose: 100.0 mg/kg/injection, schedule: Q04DX002 (ip), vehicle: Klucel (hydroxypropylcellulose) (HPC) 86 % of control | dose: 400.0 mg/kg/injection, schedule: Q04DX002 (ip), vehicle: Klucel (hydroxypropylcellulose) (HPC) 97 % of control

O=C1C2C3C=CC(C2C(=O)N1Cc1ccccc1)C1C2C(=O)N(Cc4ccccc4)C(=O)C2C31 (stereo unspecified)
inactive: dose: 12.5 mg/kg/injection, schedule: Q01DX001 (ip), vehicle: saline with Tween-80 101 % of control | dose: 25.0 mg/kg/injection, schedule: Q01DX001 (ip), vehicle: saline with Tween-80 90 % of control

CC(C)N(C(=O)c1ncccc1C(=O)c1ccccn1)C(C)C
inactive: [11] 105 % of control | [12] 94 % of control | [13] 94 % of control

CCOc1cccc2c1NC(C)=C(C(=O)c1ccccc1)S2
inactive: [8] 100 % of control | [9] 95 % of control | [10] 91 % of control

CNCc1c(O)ccc2c(-c3ccccc3)cc(=O)oc12
inactive: dose: 100.0 mg/kg/injection, schedule: Q04DX002 (ip), vehicle: saline with Tween-80 100 % of control | dose: 200.0 mg/kg/injection, schedule: Q04DX002 (ip), vehicle: saline with Tween-80 101 % of control

Cc1noc(NCc2ccccc2)c1C
inactive: [3] 104 % of control | [5] 101 % of control | [7] 100 % of control

O=C1c2ccccc2C2NCCCN12 (stereo unspecified)
inactive: dose: 50.0 mg/kg/injection, schedule: Q01DX009 (ip), vehicle: suspension in saline 93 % of control | dose: 100.0 mg/kg/injection, schedule: Q01DX009 (ip), vehicle: suspension in saline 102 % of control | dose: 200.0 mg/kg/injection, schedule: Q01DX009 (ip), vehicle: suspension in saline 107 % of control | dose: 400.0 mg/kg/injection, schedule: Q01DX009 (ip), vehicle: suspension in saline 111 % of control

CC1CC(C)C(C)C(C)(CN(C)C)C1 (stereo unspecified)
inactive: dose: 12.5 mg/kg/injection, schedule: Q01DX005 (ip), vehicle: saline with Tween-80 102 % of control | dose: 25.0 mg/kg/injection, schedule: Q01DX005 (ip), vehicle: saline with Tween-80 98 % of control | [11] 100 % of control and 96 % of control

CN(C)CCOc1ccc2c(c1)C1=NN(c3ccccc3)C(=O)CC1CO2 (stereo unspecified)
inactive: [8] 103 % of control | [9] 99 % of control

O=CNc1ccc(Cl)cc1C(=O)c1ccccc1
inactive: [14] 108 % of control | [15] 100 % of control | [16] 95 % of control

CCOC(=O)c1ccc(NC(c2ccc(N(CCCl)CCCl)cc2)P(=O)(Oc2ccccc2)Oc2ccccc2)cc1 (stereo unspecified)
inactive: [14] 93 % of control | [15] 96 % of control | [16] 95 % of control

Cc1cc(Nc2ccc(N(C)C)cc2)c2cc(N(C)C)ccc2n1
inactive: [1] 96 % of control | [2] 107 % of control

NC(=O)c1oc([N+](=O)[O-])c(-c2ccccc2)c1-c1ccccc1
inactive: [11] 99 % of control | [12] 102 % of control | [13] 93 % of control
